Measured values as given in ChEMBL document CHEMBL3758123, “Synthesis, biological evaluation and molecular modeling study of some new thiazolodiazepine analogs as CNS active agents” (Bioorg Med Chem Lett, 2016).
Calls of active or inactive are those of the source. No cut-off for these calls is given here.

Assays:
Mus musculus [1] = experiment: Anticonvulsant activity in Swiss albino mouse assessed as picrotoxin-induced convulsions frequency time at 200 mg/kg, ip administered for 30 mins followed by picrotoxin challenge; type: functional
Mus musculus [2] = experiment: Anticonvulsant activity in Swiss albino mouse assessed as picrotoxin-induced onset of convulsion time at 200 mg/kg, ip administered for 30 mins followed by picrotoxin challenge; type: functional
Mus musculus [3] = experiment: Anticonvulsant activity in Swiss albino mouse assessed as pentylenetetrazole induced onset of convulsion time at 200 mg/kg, ip administered for 20 mins followed by pentylenetetrazole challenge; type: functional
Mus musculus [4] = experiment: Toxicity in pentylenetetrazole induced Swiss albino mouse convulsion model assessed as time of death at 200 mg/kg, ip administered for 20 mins followed by pentylenetetrazole challenge; type: organism-based; settings: in vivo
Mus musculus [5] = experiment: Hypnotic activity in mouse assessed as quietness at 200 mg/kg, ip after 20 mins; type: functional, organism-based
Mus musculus [6] = experiment: Anticonvulsant activity in Swiss albino mouse assessed as pentylenetetrazole induced convulsions frequency time at 200 mg/kg, ip administered for 20 mins followed by pentylenetetrazole challenge; type: functional
Mus musculus [7] = experiment: Toxicity in picrotoxin-induced Swiss albino mouse convulsion model assessed as time of death at 200 mg/kg, ip administered for 30 mins followed by picrotoxin challenge; type: organism-based; settings: in vivo, 0.5 h
Mus musculus [8] = experiment: Protective index, ratio of TD50 for Swiss albino mouse assessed as motor performance to ED50 for protection against picrotoxin-induced seizure in ip dosed Swiss albino mouse; type: functional
Mus musculus [9] = experiment: Hypnotic activity in mouse assessed as calmness at 200 mg/kg, ip after 20 mins; type: functional, organism-based
Mus musculus [10] = experiment: Anticonvulsant activity in Swiss albino mouse assessed as protection against pentylenetetrazole-induced seizure at 200 mg/kg, ip administered for 20 mins followed by pentylenetetrazole challenge; type: functional
Mus musculus [11] = experiment: Hypnotic activity in mouse assessed as muscle relaxation at 200 mg/kg, ip after 15 mins; type: functional, organism-based
Mus musculus [12] = experiment: Potency index, ratio of compound activity to sodium valproate activity against pentylenetetrazole-induced seizure in ip dosed Swiss albino mouse; type: functional
Mus musculus [13] = experiment: Anticonvulsant activity in Swiss albino mouse assessed as pentylenetetrazole induced onset of convulsion time at 100 mg/kg, ip administered for 20 mins followed by pentylenetetrazole challenge; type: functional
Mus musculus [14] = experiment: Anticonvulsant activity in Swiss albino mouse assessed as protection against maximal electroshock-induced seizures at 200 mg/kg, ip administered for 30 mins followed by electric shock treatment; type: functional
Mus musculus [15] = experiment: Toxicity in pentylenetetrazole induced Swiss albino mouse convulsion model assessed as time of death at 100 mg/kg, ip administered for 20 mins followed by pentylenetetrazole challenge; type: organism-based; settings: in vivo
Mus musculus [16] = experiment: Protective index, ratio of TD50 for Swiss albino mouse assessed as motor performance to ED50 for protection against pentylenetetrazole-induced seizure in ip dosed Swiss albino mouse; type: functional
[17] = Therapeutic index, ratio of LD50 for ip dosed Swiss albino mouse to ED50 for protection against pentylenetetrazole induced seizure in ip dosed Swiss albino mouse; type: organism-based; settings: in vivo, read-out: Ratio LD50/ED50
Mus musculus [18] = experiment: Protective index, ratio of TD50 for Swiss albino mouse assessed as motor performance to ED50 for protection against maximal electroshock-induced seizure in ip dosed Swiss albino mouse; type: functional
Mus musculus [19] = experiment: Anticonvulsant activity in ip dosed Swiss albino mouse assessed as protection against maximal electroshock-induced seizures administered for 30 mins followed by electric shock treatment; type: functional; settings: 0.5 h
Mus musculus [20] = experiment: Hypnotic activity in mouse assessed as decrease in locomotors activity at 200 mg/kg, ip after 20 mins; type: functional, organism-based
Mus musculus [21] = experiment: Anticonvulsant activity in Swiss albino mouse assessed as pentylenetetrazole induced convulsions frequency time at 100 mg/kg, ip administered for 20 mins followed by pentylenetetrazole challenge; type: functional
Mus musculus [22] = experiment: Hypnotic activity in mouse assessed as decrease in locomotors activity at 100 mg/kg, ip after 20 mins; type: functional, organism-based
Mus musculus [23] = experiment: Anticonvulsant activity in Swiss albino mouse assessed as protection against pentylenetetrazole-induced seizure at 100 mg/kg, ip after 20 mins; type: functional
Mus musculus [24] = experiment: Hypnotic activity in mouse assessed as calmness at 100 mg/kg, ip after 20 mins; type: functional, organism-based
Mus musculus [25] = experiment: Anticonvulsant activity in Swiss albino mouse assessed as protection against maximal electroshock-induced seizures at 100 mg/kg, ip administered for 30 mins followed by electric shock treatment; type: functional
Mus musculus [26] = experiment: Hypnotic activity in mouse assessed as loss of righting reflex and sleep at 100 mg/kg, ip after 2 mins; type: functional, organism-based
Mus musculus [27] = experiment: Hypnotic activity in mouse assessed as loss of righting reflex and sleep at 200 mg/kg, ip after 20 mins; type: functional, organism-based

| SMILES | Time (Mus musculus [1]) | Time (Mus musculus [2]) | Time (Mus musculus [3]) | Time (Mus musculus [4]) | Activity (Mus musculus [5]) | Time (Mus musculus [6]) | Time (Mus musculus [7]) | also measured |
| --- | --- | --- | --- | --- | --- | --- | --- | --- |
| CC1=CN2CCCC(=O)N=C2S1 | 8.7 min | 7.1 min | 4.1 min | 5.2 min | Active | 3.1 min | 10.1 min |  |
| COc1ccc(/C=C2\CCN3C(C)=CSC3=NC2=O)cc1 | 9.5 min | 11.3 min | 2.3 min | 5.1 min | Active | 1.9 min | 20.7 min |  |
| CCOC(=O)C1=C(C)N2CCCC(=O)N=C2S1 |  |  |  |  |  |  |  | Ratio TD50/ED50 (Mus musculus [8]): 1.35; Activity (Mus musculus [9]): Active; Activity (Mus musculus [10]): 100%; Activity (Mus musculus [11]): Active; Ratio (Mus musculus [12]): 2; Time (Mus musculus [13]): 4.6 min; Activity (Mus musculus [14]): 100%; Time (Mus musculus [15]): 6.3 min; Ratio TD50/ED50 (Mus musculus [16]): 1.57; selectivity ratio [17]: 5.28; Ratio TD50/ED50 (Mus musculus [18]): 2.22; ED50 (Mus musculus [19]): 90 mg/kg; Activity (Mus musculus [20]): Active; Time (Mus musculus [21]): 2 min |
| CC1=CSC2=NC(=O)/C(=C/c3ccc(Br)cc3)CCN12 | 2.5 min | 12.5 min | 2.1 min | 3.6 min | Active | 2 min | 19.5 min |  |
| CCOC(=O)C1=C(C)N2CC/C(=C\c3ccc(Br)cc3)C(=O)N=C2S1 | 6.1 min | 8.1 min | 7.3 min | 8.4 min |  | 4.1 min | 11.6 min | Activity (Mus musculus [20]): Active |
| CC1=CN2CC/C(=C\c3ccc(Br)cc3)C(=O)N=C2S1 | 6 min | 8 min | 1.2 min | 2.6 min |  | 2.1 min | 14.3 min |  |
| CC1=CSC2=NC(=O)CCCN12 | 6.7 min | 13.9 min | 1.5 min | 4.1 min | Active | 3.1 min | 18.5 min |  |
| CC1=C(Sc2ccccc2C(=O)O)SC2=NC(=O)CCCN21 | 7.3 min | 7.8 min | 1.5 min | 3.8 min |  | 2.8 min | 12.3 min | Activity (Mus musculus [20]): Active |
| COc1ccc(/C=C2\CCN3C=C(C)SC3=NC2=O)cc1 | 3 min | 10.1 min | 4.1 min | 27.3 min |  | 5.3 min | 8.1 min | Activity (Mus musculus [9]): Active |
| CC1=C(Br)SC2=NC(=O)CCCN21 | 5 min | 13.5 min |  |  |  |  | 23.1 min | Activity (Mus musculus [22]): Active; Activity (Mus musculus [23]): 100%; Activity (Mus musculus [24]): Active; Ratio TD50/ED50 (Mus musculus [8]): 1.31; Activity (Mus musculus [25]): 100%; Activity (Mus musculus [26]): Active; Ratio (Mus musculus [12]): 4; Activity (Mus musculus [27]): Active; Ratio TD50/ED50 (Mus musculus [16]): 1.51; selectivity ratio [17]: 5.71; Ratio TD50/ED50 (Mus musculus [18]): 2.17; ED50 (Mus musculus [19]): 78 mg/kg |
| CCOC(=O)C1=C(C)N2CC/C(=C\c3ccc(OC)cc3)C(=O)N=C2S1 | 11.1 min | 9.1 min | 2.2 min | 3.7 min |  | 2.3 min | 18.3 min |  |
